Assay results taken from article PMC4770715, “LIM kinase inhibitors disrupt mitotic microtubule organization and impair tumor cell proliferation” (Oncotarget, 2015).

Legend:
Experiment in all cases: biochemical
Design in all cases: KINOMEscan active-site competition binding, percent of control (100 = no competition)
Details in all cases: competition binding, percent control
PIK3CA(M1043I) = PIK3CA(M1043I) (Homo sapiens, UniProt P42336, M1043I)
LKB1 = molecular target: T1, LKB1 (Homo sapiens, UniProt Q15831)
T1 construct: gene STK11

[1] = molecular target: T2, JAK1(JH1domain-catalytic) (Homo sapiens, UniProt P23458)
T2 construct: JH1domain-catalytic

CSNK1E = CSNK1E (Homo sapiens, UniProt P49674)
IKK-alpha = molecular target: T3, IKK-alpha (Homo sapiens, UniProt O15111)
T3 construct: gene CHUK
T3 sequence (O15111 whole entry): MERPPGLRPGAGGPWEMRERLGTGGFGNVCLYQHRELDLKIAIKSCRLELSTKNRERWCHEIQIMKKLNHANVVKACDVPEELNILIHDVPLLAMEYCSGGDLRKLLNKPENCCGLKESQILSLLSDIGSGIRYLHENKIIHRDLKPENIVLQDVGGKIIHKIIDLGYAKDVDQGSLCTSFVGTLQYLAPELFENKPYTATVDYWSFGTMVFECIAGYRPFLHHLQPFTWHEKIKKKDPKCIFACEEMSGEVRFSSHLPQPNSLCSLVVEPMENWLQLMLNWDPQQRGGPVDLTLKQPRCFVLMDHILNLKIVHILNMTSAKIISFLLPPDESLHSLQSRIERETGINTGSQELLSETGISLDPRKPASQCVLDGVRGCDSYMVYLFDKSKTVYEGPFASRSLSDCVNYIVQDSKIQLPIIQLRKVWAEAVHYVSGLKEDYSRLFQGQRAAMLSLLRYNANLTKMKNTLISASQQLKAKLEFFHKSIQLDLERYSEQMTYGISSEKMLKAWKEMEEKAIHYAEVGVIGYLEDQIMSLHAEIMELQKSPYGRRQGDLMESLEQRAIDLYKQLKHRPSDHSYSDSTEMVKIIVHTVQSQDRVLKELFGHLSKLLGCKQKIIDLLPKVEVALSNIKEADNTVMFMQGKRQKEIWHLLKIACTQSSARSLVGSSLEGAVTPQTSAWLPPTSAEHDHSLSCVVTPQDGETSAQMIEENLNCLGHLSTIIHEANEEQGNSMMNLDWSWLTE

DAPK3 = DAPK3 (Homo sapiens, UniProt O43293)
TRKC = molecular target: T4, TRKC (Homo sapiens, UniProt Q16288)
T4 construct: gene NTRK3
T4 sequence (Q16288 whole entry): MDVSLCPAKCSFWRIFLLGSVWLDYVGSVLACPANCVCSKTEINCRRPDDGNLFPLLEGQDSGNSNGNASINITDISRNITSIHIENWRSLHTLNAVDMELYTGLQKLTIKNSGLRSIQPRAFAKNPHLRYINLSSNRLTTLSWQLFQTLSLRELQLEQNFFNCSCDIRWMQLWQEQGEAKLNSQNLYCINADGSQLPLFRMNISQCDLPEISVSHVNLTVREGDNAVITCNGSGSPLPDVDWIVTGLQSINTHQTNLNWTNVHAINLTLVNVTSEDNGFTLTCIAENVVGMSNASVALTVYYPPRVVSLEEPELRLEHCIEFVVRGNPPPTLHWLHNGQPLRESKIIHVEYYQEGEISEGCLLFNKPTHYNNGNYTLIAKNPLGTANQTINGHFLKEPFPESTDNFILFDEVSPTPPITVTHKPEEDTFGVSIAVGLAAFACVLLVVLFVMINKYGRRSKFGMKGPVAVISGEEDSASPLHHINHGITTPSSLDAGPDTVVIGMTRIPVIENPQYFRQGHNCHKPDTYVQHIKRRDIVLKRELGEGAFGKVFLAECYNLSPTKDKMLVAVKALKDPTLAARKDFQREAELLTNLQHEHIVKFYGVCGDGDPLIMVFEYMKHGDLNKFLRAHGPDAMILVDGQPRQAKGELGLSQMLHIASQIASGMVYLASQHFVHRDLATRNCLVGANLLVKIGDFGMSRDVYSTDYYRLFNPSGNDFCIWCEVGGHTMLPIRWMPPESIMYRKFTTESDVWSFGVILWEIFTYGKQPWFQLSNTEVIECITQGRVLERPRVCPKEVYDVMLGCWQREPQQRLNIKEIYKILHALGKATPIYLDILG

LTK = LTK (Homo sapiens, UniProt P29376)
CTK = molecular target: T5, CTK (Homo sapiens, UniProt P42679)
T5 construct: gene MATK

DCAMKL1 = molecular target: T6, DCAMKL1 (Homo sapiens, UniProt O15075)
T6 construct: gene DCLK1

ASK1 = molecular target: T7, ASK1 (Homo sapiens, UniProt Q99683)
T7 construct: gene MAP3K5
T7 sequence (Q99683 whole entry): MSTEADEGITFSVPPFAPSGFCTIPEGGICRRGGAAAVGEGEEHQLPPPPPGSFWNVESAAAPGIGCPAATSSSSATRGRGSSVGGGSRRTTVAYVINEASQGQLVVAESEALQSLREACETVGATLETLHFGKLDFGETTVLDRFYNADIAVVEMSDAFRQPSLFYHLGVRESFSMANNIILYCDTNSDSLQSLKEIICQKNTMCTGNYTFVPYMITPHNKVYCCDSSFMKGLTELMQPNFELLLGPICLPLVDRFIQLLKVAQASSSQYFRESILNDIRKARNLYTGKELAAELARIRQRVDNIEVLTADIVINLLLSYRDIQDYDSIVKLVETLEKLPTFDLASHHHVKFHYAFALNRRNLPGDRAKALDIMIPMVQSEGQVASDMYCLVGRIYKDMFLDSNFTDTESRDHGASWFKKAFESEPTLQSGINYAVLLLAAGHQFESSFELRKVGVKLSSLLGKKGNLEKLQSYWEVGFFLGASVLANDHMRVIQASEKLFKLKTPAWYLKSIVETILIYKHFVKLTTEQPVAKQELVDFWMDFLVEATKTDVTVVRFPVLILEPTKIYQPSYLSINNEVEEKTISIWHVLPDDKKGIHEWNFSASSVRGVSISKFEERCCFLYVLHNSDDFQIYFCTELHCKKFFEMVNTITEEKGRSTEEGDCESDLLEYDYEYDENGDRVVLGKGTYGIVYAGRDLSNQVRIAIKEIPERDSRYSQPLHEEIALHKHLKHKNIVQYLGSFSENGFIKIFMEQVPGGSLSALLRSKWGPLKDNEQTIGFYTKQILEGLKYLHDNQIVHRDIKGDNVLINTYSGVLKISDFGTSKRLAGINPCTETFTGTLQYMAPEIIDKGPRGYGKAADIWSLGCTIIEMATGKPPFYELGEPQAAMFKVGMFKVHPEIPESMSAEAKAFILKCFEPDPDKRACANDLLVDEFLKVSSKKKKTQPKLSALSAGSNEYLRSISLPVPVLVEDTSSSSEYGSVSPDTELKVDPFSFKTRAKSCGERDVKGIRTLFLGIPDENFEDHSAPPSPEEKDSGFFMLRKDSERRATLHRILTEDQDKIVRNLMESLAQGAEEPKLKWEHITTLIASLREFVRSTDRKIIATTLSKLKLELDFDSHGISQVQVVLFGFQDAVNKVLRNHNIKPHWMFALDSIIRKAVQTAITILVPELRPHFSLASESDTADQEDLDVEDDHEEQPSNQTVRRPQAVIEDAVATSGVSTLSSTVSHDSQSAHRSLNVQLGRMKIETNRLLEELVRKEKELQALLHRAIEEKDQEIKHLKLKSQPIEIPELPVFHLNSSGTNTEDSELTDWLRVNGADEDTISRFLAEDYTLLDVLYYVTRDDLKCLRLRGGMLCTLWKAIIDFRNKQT

MAP4K4 = MAP4K4 (Homo sapiens, UniProt O95819)
PIM3 = PIM3 (Homo sapiens, UniProt Q86V86)
PDPK1 = PDPK1 (Homo sapiens, UniProt O15530)
PDPK1, sequence (O15530 whole entry): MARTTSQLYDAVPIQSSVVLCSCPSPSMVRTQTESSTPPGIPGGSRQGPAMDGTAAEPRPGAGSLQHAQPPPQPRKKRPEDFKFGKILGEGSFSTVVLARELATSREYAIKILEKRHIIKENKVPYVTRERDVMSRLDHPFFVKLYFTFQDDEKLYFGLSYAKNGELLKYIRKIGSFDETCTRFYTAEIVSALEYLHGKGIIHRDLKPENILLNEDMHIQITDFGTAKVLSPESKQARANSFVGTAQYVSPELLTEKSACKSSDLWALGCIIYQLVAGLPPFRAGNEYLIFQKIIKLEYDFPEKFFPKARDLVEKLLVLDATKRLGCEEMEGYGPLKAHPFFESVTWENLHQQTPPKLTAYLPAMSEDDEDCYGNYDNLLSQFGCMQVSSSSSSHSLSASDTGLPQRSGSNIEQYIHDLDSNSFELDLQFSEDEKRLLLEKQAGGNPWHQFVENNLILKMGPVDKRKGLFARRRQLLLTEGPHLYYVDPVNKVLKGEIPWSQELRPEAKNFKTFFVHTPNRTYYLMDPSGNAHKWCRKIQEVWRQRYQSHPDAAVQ

MAPKAPK5 = MAPKAPK5 (Homo sapiens, UniProt Q8IW41)
MAPKAPK5, sequence (Q8IW41 whole entry): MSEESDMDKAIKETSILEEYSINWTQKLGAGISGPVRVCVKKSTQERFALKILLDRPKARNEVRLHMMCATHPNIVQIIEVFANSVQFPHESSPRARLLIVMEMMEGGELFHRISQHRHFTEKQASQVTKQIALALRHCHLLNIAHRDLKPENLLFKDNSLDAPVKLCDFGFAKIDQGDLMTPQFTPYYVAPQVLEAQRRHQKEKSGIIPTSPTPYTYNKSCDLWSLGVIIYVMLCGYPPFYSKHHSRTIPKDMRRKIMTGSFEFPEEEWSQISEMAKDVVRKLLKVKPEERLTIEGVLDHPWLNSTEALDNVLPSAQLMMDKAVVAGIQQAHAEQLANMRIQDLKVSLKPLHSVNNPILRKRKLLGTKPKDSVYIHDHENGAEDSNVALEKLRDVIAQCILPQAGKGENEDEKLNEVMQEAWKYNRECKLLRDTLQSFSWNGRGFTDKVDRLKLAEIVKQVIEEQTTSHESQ

[2] = molecular target: T8, ABL1(T315I)-nonphosphorylated (Homo sapiens, UniProt P00519, T315I)
T8 construct: nonphosphorylated

PIP5K1A = PIP5K1A (Homo sapiens, UniProt Q99755)
HUNK = HUNK (Homo sapiens, UniProt P57058)
MST4 = molecular target: T9, MST4 (Homo sapiens, UniProt Q9P289)
T9 construct: gene STK26

EPHB4 = EPHB4 (Homo sapiens, UniProt P54760)
FAK = molecular target: T10, FAK (Homo sapiens, UniProt Q05397)
T10 construct: gene PTK2

MAP3K2 = MAP3K2 (Homo sapiens, UniProt Q9Y2U5)
NLK = NLK (Homo sapiens, UniProt Q9UBE8)

PIK3CA(M1043I), sequence (P42336 whole entry M1043I): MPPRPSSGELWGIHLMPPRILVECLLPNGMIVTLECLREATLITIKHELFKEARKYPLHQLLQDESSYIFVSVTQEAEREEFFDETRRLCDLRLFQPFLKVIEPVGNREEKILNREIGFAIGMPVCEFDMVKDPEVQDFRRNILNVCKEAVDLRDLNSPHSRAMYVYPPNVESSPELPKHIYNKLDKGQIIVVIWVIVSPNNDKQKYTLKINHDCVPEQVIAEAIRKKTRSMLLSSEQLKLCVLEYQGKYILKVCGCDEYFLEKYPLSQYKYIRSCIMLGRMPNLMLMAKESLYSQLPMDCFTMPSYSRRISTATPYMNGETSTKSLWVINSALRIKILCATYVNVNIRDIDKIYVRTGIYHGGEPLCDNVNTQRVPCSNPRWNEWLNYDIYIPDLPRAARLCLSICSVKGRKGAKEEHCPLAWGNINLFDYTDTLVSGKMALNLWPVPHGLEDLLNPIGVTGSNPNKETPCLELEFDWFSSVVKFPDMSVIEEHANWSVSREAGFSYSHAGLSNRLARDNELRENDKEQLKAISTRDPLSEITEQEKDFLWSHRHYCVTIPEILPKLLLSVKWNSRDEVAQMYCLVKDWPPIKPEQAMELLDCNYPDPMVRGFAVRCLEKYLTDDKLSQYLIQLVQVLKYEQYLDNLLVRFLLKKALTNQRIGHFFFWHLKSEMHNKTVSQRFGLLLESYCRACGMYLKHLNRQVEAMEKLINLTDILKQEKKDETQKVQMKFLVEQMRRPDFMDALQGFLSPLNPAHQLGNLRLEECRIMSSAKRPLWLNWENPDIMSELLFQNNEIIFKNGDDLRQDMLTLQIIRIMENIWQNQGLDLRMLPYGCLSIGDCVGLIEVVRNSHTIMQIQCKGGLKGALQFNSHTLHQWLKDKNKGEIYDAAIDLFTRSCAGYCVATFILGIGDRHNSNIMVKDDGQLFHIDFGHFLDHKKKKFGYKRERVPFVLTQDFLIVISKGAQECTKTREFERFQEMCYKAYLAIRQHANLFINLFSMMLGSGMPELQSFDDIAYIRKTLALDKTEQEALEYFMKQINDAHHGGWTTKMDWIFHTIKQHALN

`COc1ccc(-c2cnccc2-c2cnc(NC(=O)C(C)C)s2)c(C(F)(F)F)c1` [CRT0105446, N-{5-[3-(4-Methoxy-2-trifluoromethyl-phenyl)-pyridin-4-yl]-hiazol-2-yl}-isobutyramide] showed a remaining binding at 10 µM (PIK3CA(M1043I)) of 100%, a remaining binding at 10 µM (LKB1) of 100% and a remaining binding at 10 µM [1] of 89%. The remaining binding at 10 µM (CSNK1E) was 42%, the remaining binding at 10 µM (IKK-alpha) was 89% and the remaining binding at 10 µM (DAPK3) was 83%. For the same compound, the remaining binding at 10 µM (TRKC) was 100%, the remaining binding at 10 µM (LTK) was 100% and the remaining binding at 10 µM (CTK) was 100%. It also gave a remaining binding at 10 µM (DCAMKL1) of 46%, a remaining binding at 10 µM (ASK1) of 100% and a remaining binding at 10 µM (MAP4K4) of 68%. The remaining binding at 10 µM (PIM3) was 95%, the remaining binding at 10 µM (PDPK1) was 100% and the remaining binding at 10 µM (MAPKAPK5) was 95%. The remaining binding at 10 µM [2] was 100%, the remaining binding at 10 µM (PIP5K1A) was 100% and the remaining binding at 10 µM (HUNK) was 89%. It also gave a remaining binding at 10 µM (MST4) of 61%, a remaining binding at 10 µM (EPHB4) of 93% and a remaining binding at 10 µM (FAK) of 100%. For the same compound, the remaining binding at 10 µM (MAP3K2) was 82% and the remaining binding at 10 µM (NLK) was 57%.

`Cc1ccc(-c2cnccc2-c2cnc(Nc3ccc(O)cc3)s2)c(Cl)c1` [CRT0105950, 4-{5-[3-(2-Chloro-4-methyl-phenyl)-pyridin-4-yl]-thiazol-2-ylamino}-phenol] was tested, and the remaining binding at 10 µM (PIK3CA(M1043I)) was 100%, the remaining binding at 10 µM (LKB1) was 79% and the remaining binding at 10 µM [1] was 53%. It also gave a remaining binding at 10 µM (CSNK1E) of 11%, a remaining binding at 10 µM (IKK-alpha) of 94% and a remaining binding at 10 µM (DAPK3) of 44%. For the same compound, the remaining binding at 10 µM (TRKC) was 0.6%, the remaining binding at 10 µM (LTK) was 100% and the remaining binding at 10 µM (CTK) was 100%. For the same compound, the remaining binding at 10 µM (DCAMKL1) was 75%, the remaining binding at 10 µM (ASK1) was 100% and the remaining binding at 10 µM (MAP4K4) was 11%. The remaining binding at 10 µM (PIM3) was 72%, the remaining binding at 10 µM (PDPK1) was 28% and the remaining binding at 10 µM (MAPKAPK5) was 97%. The remaining binding at 10 µM [2] was 82%, the remaining binding at 10 µM (PIP5K1A) was 82% and the remaining binding at 10 µM (HUNK) was 49%. For the same compound, the remaining binding at 10 µM (MST4) was 37%, the remaining binding at 10 µM (EPHB4) was 82% and the remaining binding at 10 µM (FAK) was 33%. The remaining binding at 10 µM (MAP3K2) was 15% and the remaining binding at 10 µM (NLK) was 20%.
